Publication PMC3431801 (2012)

Experiments:
Type in all cases: biochemical
PDE1 = assay: recombinant PDE activity assay with [3H]cAMP, calmodulin and Ca2+
PDE4D (PDE4) = PDE4D (PDE4) (Homo sapiens, UniProt Q08499); assay: recombinant PDE activity assay with [3H]cAMP
PDE3 = assay: recombinant PDE activity assay with [3H]cAMP

Chain of PDE4D (PDE4) (Q08499 whole entry): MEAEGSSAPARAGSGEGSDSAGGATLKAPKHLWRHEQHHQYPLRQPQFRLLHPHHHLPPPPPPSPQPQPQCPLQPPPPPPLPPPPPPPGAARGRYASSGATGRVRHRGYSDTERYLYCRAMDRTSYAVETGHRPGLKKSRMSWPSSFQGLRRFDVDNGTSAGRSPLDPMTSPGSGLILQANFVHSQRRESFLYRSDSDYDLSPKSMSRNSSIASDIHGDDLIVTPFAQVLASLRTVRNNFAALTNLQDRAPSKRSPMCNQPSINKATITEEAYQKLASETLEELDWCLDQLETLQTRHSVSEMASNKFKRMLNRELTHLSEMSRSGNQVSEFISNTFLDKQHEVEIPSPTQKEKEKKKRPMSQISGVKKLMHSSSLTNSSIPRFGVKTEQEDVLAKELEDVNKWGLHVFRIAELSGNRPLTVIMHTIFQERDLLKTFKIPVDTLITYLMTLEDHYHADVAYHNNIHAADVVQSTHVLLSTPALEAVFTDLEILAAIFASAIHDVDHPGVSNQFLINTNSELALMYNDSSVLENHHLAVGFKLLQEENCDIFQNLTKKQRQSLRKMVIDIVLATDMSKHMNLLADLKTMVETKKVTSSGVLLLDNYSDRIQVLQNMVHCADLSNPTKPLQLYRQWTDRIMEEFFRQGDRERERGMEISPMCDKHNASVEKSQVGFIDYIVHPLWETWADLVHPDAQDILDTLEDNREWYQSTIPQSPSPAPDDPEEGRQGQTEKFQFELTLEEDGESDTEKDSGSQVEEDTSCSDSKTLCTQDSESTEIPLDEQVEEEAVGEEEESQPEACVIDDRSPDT

Which results are given for Oc1ccc(/C=C/c2cc(O)cc(O)c2)cc1 [resveratrol]?
IC50 (PDE1): ~6 µM; IC50 (PDE4D (PDE4)): ~14 µM; IC50 (PDE3): ~10 µM
